{"source": "patent US8598115B2", "about": "“Cyclic compound and salt thereof” (Astellas Pharma Inc., priority 2008, dated 2013)", "tested_on": "Aspergillus fumigatus FP1305", "experiment": "Antifungal activity, broth microdilution method", "format": "cell-based", "experimental": "Antifungal activities for test fungi shown in Table 15 was determined by a broth microdilution method (Hikaru Kume and Toshikazu Yamazaki, Clinical Microbiology, Vol. 21, No. 5, pp. 573-580, 1994).", "note": "Square brackets hold non-standard residues; d marks the D form. Peptide text beside a SMILES is read from it. Orn(N5-OH,N5-Ac) = CC(=O)N(O)CCC[C@H](N)C(=O)O", "data": [{"smiles": "CC(=O)N([O-])CCC[C@@H]1NC(=O)CNC(=O)CNC(=O)CNC(=O)[C@H](CCCN([O-])C(C)=O)NC(=O)[C@H](CCCN([O-])C(C)=O)NC1=O.[Fe+3]", "note": "[ferrichrome, Ferrichrome] (cyclo(GGG[Orn(N5-OH,N5-Ac)][Orn(N5-OH,N5-Ac)][Orn(N5-OH,N5-Ac)]))", "values": [{"measurement": "MEC (minimum effective concentration)", "value": "≥ 50", "unit": "µg/mL"}]}]}
